# Where a name gives a salt, the structure may show the parent alone.
# Tests used:
# [1] = molecular target: T1, Phospho-MET in MKN-45 cells (Homo sapiens, UniProt P08581); test: MKN-45 phospho-MET ELISA; type: cell-based; conditions: 6 h compound, 40 ng/mL HGF 10 min, read-out: MKN-45 pMET
# T1 construct: endogenous in cells; host or cells: MKN-45 (JCRB0254)
# Experimental: MKN-45 cells (catalog #JCRB0254) were obtained from the Japan Health Science Research Resources Bank, Osaka, Japan. Briefly, cells were grown in RPMI 1640 media supplemented with 10% characterized fetal bovine serum (Invitrogen, Carlsbad, Calif.) at 37° C., 5% CO2, 95% humidity. Cells were allowed to expand until reaching 70-95% confluency at which point they were subcultured or harvested for assay use.
# Twenty-five thousand cells in RPMI-1640 supplemented with 10% characterized fetal bovine serum (Invitrogen, Carlsbad, Calif.) were added per well in a 96-well black clear bottom plate (Corning, Corning, N.Y.). Cells were then incubated overnight at 37 degrees Celsius, 5% CO2, 95% humidity. Media was then aspirated and cells were washed with PBS. A serial dilution of test compound was dispensed into another 96-well black clear bottom plate (Corning, Corning, N.Y.) containing serum-free RPMI-1640. Compound was added to plates containing cells and incubated for 6 hours at 37 degrees Celsius, 5% CO2, 95% humidity. Cells were stimulated with 40 ng/mL HGF (R&D Systems, Minneapolis, Minn.) for 10 minutes, and then lysed. Phospho-MET in cell lysates was detected using the DuoSet IC Human Phospho-HGF R/c-MET ELISA (R&D Systems, Minneapolis, Minn.). Data was analyzed using Prism software (Graphpad, San Diego, Calif.) to calculate IC50 values.
# A549 cells = test: A549 cell migration assay (HGF-stimulated); type: cell-based; conditions: Homo sapiens, 40 ng/mL HGF, 48 h migration
# Experimental: A549 cells (catalog # CCL-185) were obtained from the American Type Culture Collection (ATCC, Manassas, Va.). Briefly, cells were grown in DMEM supplemented with 10% characterized fetal bovine serum (Invitrogen, Carlsbad, Calif.) at 37 degrees Celsius, 5% CO2, 95% humidity. Cells were allowed to expand until reaching 70-95% confluency at which point they were subcultured or harvested for assay use.
# Forty thousand cells in DMEM supplemented with 10% characterized fetal bovine serum (FBS; Invitrogen, Carlsbad, Calif.) were added per well in a 96-well black clear bottom Oris Collagen-Coated cell migration plate containing cell seeding stoppers (Platypus Technologies, Madison, Wis.). Cells were then incubated overnight at 37 degrees Celsius, 5% CO2, 95% humidity. Cell seeding stoppers were removed creating an area for cell migration in the center of each well of the plate. Media was replaced with DMEM supplemented with 0.5% FBS. […] A plate mask (Platypus Technologies, Madison, Wis.) that obscures each well except for the area for cell migration in the center of the well was attached to the bottom of the migration plate and fluorescence was detected using a fluorescent plate reader. Data was analyzed using Prism software (Graphpad, San Diego, Calif.) to calculate IC50 values.
# [2] = system: MET activity in MKN-45 xenograft tumors; test: pMET inhibition in a MKN-45 xenograft pharmacodynamic model; type: in vivo; conditions: nude mice, single oral 10 mg/kg dose, out to 8 h post dose
# Experimental: To examine the in vivo modulation of MET activity by compounds of formula I, MKN-45 xenograft tumors were excised at varying time points following a single oral dose. Briefly, MKN-45 cells were obtained from the Japan Health Sciences Foundation and expanded in RPMI medium which was supplemented with 20% FBS, 1% PSG (Penicillin/Streptomycin/Glutamine). The growth environment was maintained in an incubator with a 5% CO2 atmosphere at 37° C. Cells were harvested and re-suspended using 50% serum-free media and 50% Matrigel® to generate a stock concentration of 5×10^6 cells/mL.
# Seven to 8 week old female Harlan nude mice (Hsd:AthymicNude-Fox1nu) were injected with 200 μL of cell suspension subcutaneously, just below the right axilla. All procedures carried out in this experiment were conducted in compliance with all the laws, regulations and guidelines of the National Institutes of Health (NIH). Treatment began when the mean tumor burden was approximately 300 mg. All mice were dosed with test compound by oral gavage. Plasma and tumor samples were collected from three mice at each timepoint 2, 4, 6, 8, 12, 18, and 24 hours after dosing. […] Plasma levels of MET inhibitors were determined by mass spectrometer analysis.
# [3] = system: MKN-45 human gastric adenocarcinoma xenograft; test: MKN-45 xenograft study; type: in vivo; conditions: nude mice, oral gavage, after 14 days
# Experimental: To evaluate the in vivo anti-cancer activity compounds of formula I, a MKN-45 human gastric adenocarcinoma xenograft was employed. Briefly, MKN-45 cells were obtained from the Japan Health Sciences Foundation and expanded in RPMI medium which was supplemented with 20% FBS, 1% PSG. The growth environment was maintained in an incubator with a 5% CO2 atmosphere at 37° C. Cells were harvested and re-suspended using 50% serum-free media and 50% Matrigel® to generate a stock concentration of 5×10^6 cells/mL.
# Seven to 8 week old female Harlan nude mice (Hsd:AthymicNude-Fox1nu) were injected with 200 μL of cell suspension subcutaneously, just below the right axilla. All procedures carried out in this experiment were conducted in compliance with all the laws, regulations and guidelines of the National Institutes of Health (NIH). Treatment began when the mean tumor burden was approximately 150 mg. All mice were dosed with test compound by oral gavage. Body weights and tumor measurements were recorded three times weekly. Tumor burden (mg) was estimated from caliper measurements by the formula for the volume of a prolate ellipsoid assuming unit density as: Tumor burden (mg)=(L×W2)/2, where L and W were the respective orthogonal tumor length and width measurements (mm). […]
# T1 sequence (P08581 25-1390): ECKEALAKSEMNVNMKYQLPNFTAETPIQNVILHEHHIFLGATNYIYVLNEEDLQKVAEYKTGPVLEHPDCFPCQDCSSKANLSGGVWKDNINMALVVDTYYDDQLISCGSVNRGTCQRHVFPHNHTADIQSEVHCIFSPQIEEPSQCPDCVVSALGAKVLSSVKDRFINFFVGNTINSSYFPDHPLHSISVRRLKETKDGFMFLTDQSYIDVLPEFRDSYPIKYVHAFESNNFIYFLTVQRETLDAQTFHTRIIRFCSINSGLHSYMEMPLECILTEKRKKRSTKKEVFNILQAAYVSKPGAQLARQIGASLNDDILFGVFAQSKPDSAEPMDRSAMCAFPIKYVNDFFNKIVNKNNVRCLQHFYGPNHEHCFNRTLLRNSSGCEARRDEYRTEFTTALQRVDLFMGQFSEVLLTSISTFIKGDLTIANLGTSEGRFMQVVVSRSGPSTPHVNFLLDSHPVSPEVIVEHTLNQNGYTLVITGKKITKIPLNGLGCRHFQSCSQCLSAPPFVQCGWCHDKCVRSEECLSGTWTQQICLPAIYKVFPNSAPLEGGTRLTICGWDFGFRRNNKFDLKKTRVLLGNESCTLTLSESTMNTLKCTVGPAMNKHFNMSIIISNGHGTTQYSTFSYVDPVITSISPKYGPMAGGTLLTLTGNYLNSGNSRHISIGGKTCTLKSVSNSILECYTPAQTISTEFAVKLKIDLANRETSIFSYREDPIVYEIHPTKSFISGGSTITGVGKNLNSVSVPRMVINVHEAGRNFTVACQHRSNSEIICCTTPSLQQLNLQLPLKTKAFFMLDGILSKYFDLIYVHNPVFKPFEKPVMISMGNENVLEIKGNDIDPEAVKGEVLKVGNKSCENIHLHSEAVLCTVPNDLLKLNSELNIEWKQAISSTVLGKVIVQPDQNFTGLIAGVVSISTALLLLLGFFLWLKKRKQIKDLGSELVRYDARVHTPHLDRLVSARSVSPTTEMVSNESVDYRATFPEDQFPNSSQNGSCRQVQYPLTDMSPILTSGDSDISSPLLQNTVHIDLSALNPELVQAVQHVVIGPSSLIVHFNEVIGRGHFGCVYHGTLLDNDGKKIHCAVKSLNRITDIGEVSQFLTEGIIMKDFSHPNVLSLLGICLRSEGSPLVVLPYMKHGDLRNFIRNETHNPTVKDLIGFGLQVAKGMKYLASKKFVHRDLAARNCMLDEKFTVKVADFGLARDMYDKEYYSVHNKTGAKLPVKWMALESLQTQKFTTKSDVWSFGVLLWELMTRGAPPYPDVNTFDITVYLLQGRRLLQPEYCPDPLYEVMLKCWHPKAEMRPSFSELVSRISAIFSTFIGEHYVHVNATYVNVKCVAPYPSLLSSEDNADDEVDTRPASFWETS
IC50 [1],IC50 (A549 cells),SMILES,inhibition of cFOS mRNA levels [2],% T/C ([3]; 10 mg/kg twice daily),% T/C ([3]; 30 mg/kg twice daily)
≤ 100 nM,≤ 100 nM,"CCOc1ccn(-c2ccc(F)cc2)c(=O)c1C(=O)Nc1cc(F)c(Oc2ccnc(-c3cnn(C)c3)c2)cc1F [Example 2, N-(2,5-difluoro-4-(2-(1-methyl-1H-pyrazol-4-yl)pyridin-4-yloxy)phenyl)-4-ethoxy-1-(4-fluorophenyl)-2-oxo-1,2-dihydropyridine-3-carboxamide]",80%,19 % T/C,12 % T/C
≤ 100 nM,–,"O=C(Nc1cc(F)c(Oc2ccnc(-c3cnn(CCO)c3)c2)cc1F)c1cccn(-c2ccc(F)cc2)c1=O [Example 3, N-(2,5-difluoro-4-((2-(1-(2-hydroxyethyl)-1H-pyrazol-4-yl)pyridin-4-yl)oxy)phenyl)-1-(4-fluorophenyl)-2-oxo-1,2-dihydropyridine-3-carboxamide hydrochloride]",–,–,–
≤ 100 nM,100 to 1000 nM,"Cn1cc(-c2cc(Oc3cc(F)c(NC(=O)c4cccn(-c5ccc(F)cc5)c4=O)cc3F)ccn2)cn1 [Example 1, N-(2,5-difluoro-4-((2-(1-methyl-1H-pyrazol-4-yl)pyridin-4-yl)oxy)phenyl)-1-(4-fluorophenyl)-2-oxo-1,2-dihydropyridine-3-carboxamide]",–,–,–
